Source: ChEMBL document CHEMBL1141971, “Structure-guided design of pyrazolo[1,5-a]pyrimidines as inhibitors of human cyclin-dependent kinase 2” (Bioorg Med Chem Lett, 2005)

Experiments:
[1] = biological target: Glycogen synthase kinase-3 beta (Homo sapiens, UniProt P49841); test: Inhibitory concentration for Glycogen synthase kinase-3 beta was determined in the presence of 10 um ATP (Km 10 uM)
[2] = system: HCT-116; test: Inhibitor concentration to reduce HCT 116 cell line (tumor) growth by 50% over 72 h; assay type: functional; settings: Homo sapiens, HCT-116, 72 h
[3] = biological target: Cyclin-dependent kinase 2 (Homo sapiens, UniProt P24941); test: Inhibitory concentration for Cyclin-dependent kinase 2 was determined in the presence of 100 um ATP (Km 50 uM)

Chain of Glycogen synthase kinase-3 beta (P49841 whole entry): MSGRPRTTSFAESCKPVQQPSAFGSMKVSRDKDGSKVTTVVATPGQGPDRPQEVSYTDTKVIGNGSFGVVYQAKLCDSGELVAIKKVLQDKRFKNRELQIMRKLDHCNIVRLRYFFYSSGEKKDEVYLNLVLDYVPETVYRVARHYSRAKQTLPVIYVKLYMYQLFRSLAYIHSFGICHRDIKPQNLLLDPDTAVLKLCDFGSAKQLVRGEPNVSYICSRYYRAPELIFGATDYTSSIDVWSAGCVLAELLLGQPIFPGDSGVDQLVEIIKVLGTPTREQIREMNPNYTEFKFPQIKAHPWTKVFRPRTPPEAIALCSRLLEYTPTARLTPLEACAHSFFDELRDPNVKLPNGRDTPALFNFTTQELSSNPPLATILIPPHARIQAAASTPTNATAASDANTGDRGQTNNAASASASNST

In the case of `CN(C)S(=O)(=O)c1ccc(Nc2cc(N[C@H]3CC[C@H](N)CC3)nc3c(C4CCCC4)cnn23)cc1`, the IC50 [1] is reported as 22000 nM.
With `CC(C)COc1cc(Nc2ccc(S(C)(=O)=O)cc2)n2ncc(C(C)C)c2n1` the IC50 [1] was 12000 nM and the GI50 [2] was 7800 nM.
For `CN(C)S(=O)(=O)c1ccc(Nc2cc(N[C@H]3CC[C@H](N)CC3)nc3c(Br)cnn23)cc1Cl`, the IC50 [1] was 8700 nM and the GI50 [2] was 340 nM.
`CN(C)S(=O)(=O)c1ccc(Nc2cc(N[C@H]3CC[C@H](N)CC3)nc3c(Br)cnn23)cc1` showed an IC50 [1] of 3400 nM, an IC50 [3] of 10 nM and a GI50 [2] of 910 nM.
In the case of `CCN(CC)[C@H]1CC[C@H](Nc2cc(Nc3ccc(S(=O)(=O)N(C)C)cc3)n3ncc(C(C)C)c3n2)CC1`, the IC50 [1] is reported as over 50000 nM and the GI50 [2] is reported as 16000 nM.
Work on `CC(C)c1cnn2c(Nc3ccc(S(=O)(=O)N(C)C)cc3)cc(O[C@H]3CC[C@H](N)CC3)nc12` yielded an IC50 [1] of 28000 nM and a GI50 [2] of 710 nM.
`N[C@H]1CC[C@H](Nc2cc(Nc3ccc(S(=O)(=O)c4cccs4)cc3)n3ncc(Cl)c3n2)CC1` was tested, and the IC50 [3] was 11 nM and the GI50 [2] was 120 nM.
With `CCN[C@H]1CC[C@H](Nc2cc(Nc3ccc(S(=O)(=O)N(C)C)cc3)n3ncc(C(C)C)c3n2)CC1` the IC50 [1] was over 50000 nM, the IC50 [3] was 61 nM and the GI50 [2] was 1200 nM.
Work on `CC(C)c1cnn2c(Nc3ccc(S(=O)(=O)N(C)C)cc3)cc(NC3CCCC(N)C3)nc12` (stereo not drawn) yielded an IC50 [1] of over 50000 nM, an IC50 [3] of 2100 nM and a GI50 [2] of 3400 nM.
`CN(C)S(=O)(=O)c1ccc(Nc2cc(N[C@H]3CC[C@H](N)CC3)nc3c(C#N)cnn23)cc1` showed an IC50 [1] of 460 nM and a GI50 [2] of 11000 nM.
`CC(C)COc1cc(Nc2ccc(S(=O)(=O)N(C)C)cc2)n2ncc(C(C)C)c2n1` showed an IC50 [1] of 50000 nM, an IC50 [3] of 1200 nM and a GI50 [2] of 7600 nM.
Molecule `CC(C)c1cnn2c(Nc3ccc(S(=O)(=O)N(C)C)cc3)cc(N[C@H]3CC[C@H](N)CC3)nc12` has an IC50 [1] of 40000 nM and a GI50 [2] of 580 nM.
`N[C@H]1CC[C@H](Nc2cc(Nc3ccc(S(=O)(=O)c4ccccc4)cc3)n3ncc(Br)c3n2)CC1` showed an IC50 [1] of 5300 nM, an IC50 [3] of 16 nM and a GI50 [2] of 80 nM.
`CN(C)S(=O)(=O)c1ccc(Nc2cc(N[C@H]3CC[C@H](N)CC3)nc3c(Cl)cnn23)cc1` gave an IC50 [1] of 5100 nM, an IC50 [3] of 8 nM and a GI50 [2] of 2700 nM.
